Data set [1] deals with T1, c-Src (Homo sapiens, UniProt P12931).
T1 construct: purchased Reaction Biology Corporation (PA, USA)
Nature of the data set: Kinase inhibition assay (Reaction Biology). The class given is biochemical.

Data set [2] deals with T2, FLT3 (Homo sapiens, UniProt P36888).
T2 construct: purchased Reaction Biology Corporation (PA, USA)
The data set is described as follows: Kinase inhibition assay (Reaction Biology). The class given is biochemical.
T2 sequence (P36888 27-993): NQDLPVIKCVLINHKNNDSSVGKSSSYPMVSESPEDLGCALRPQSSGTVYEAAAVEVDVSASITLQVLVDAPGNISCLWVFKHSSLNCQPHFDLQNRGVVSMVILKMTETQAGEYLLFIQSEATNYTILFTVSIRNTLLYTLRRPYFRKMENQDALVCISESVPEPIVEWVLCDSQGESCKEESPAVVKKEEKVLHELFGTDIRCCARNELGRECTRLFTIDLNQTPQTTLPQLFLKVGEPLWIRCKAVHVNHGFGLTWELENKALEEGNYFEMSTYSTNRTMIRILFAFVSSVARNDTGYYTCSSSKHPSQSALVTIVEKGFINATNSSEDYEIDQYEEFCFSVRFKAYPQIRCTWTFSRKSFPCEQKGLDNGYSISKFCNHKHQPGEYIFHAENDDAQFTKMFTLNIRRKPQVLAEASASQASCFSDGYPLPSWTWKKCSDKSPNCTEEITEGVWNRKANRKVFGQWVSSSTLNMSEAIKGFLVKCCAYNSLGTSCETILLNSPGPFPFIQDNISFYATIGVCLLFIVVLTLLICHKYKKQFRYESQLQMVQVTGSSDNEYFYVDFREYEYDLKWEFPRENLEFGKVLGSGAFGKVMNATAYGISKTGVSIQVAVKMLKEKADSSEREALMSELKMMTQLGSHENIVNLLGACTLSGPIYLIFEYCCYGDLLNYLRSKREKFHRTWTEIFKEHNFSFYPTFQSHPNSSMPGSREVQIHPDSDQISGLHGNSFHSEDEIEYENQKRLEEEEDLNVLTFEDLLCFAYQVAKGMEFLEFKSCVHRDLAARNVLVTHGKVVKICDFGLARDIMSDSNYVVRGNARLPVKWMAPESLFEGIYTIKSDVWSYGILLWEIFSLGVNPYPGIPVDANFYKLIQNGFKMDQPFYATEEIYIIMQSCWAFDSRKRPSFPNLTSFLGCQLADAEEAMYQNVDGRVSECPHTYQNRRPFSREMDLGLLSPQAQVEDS

Data set [3] concerns the target T3, JAK1 (Homo sapiens, UniProt P23458).
T3 construct: purchased Reaction Biology Corporation (PA, USA)
Nature of the data set: Kinase inhibition assay (Reaction Biology). The class given is biochemical.

Data set [4] has as its target T4, JAK3 (Homo sapiens, UniProt P52333).
T4 construct: purchased Reaction Biology Corporation (PA, USA)
The data set is described as follows: Kinase inhibition assay (Reaction Biology). The class given is biochemical.

The target of data set [5] is FLT3 (Homo sapiens, UniProt P36888). The data set is described as follows: FLT3 autophosphorylation by western blot in MV4-11 and MOLM13 cells. The class given is cell-based. Particulars: 2 h, read-out: IC50 of inhibition of FLT3 autophosphorylation. The procedure: Western blot analysis was performed as previously described. AML cell lines, BaF3 transformed cell lines and human primary cells were treated with the indicated concentration of FLT3 inhibitors for 2 h. To examine the phosphorylation levels of FLT3-Y591 (Cat. #3464s), p44/42-Thr202/Tyr204 (Cat. #4370), whole-cell lysates were subjected to immunoblotting with the corresponding primary antibodies from Cell Signaling Technology (MA, USA). Anti-STAT5 (Cat. #a7733), anti-STAT5-Y694 (Cat. #ap0070), anti-ERK1/2 (Cat. #a1013), anti-AKT (Cat. #a7270), anti-AKT-Ser473 (Cat. #ap0098), anti-Caspase 3 (Cat. #a11021), anti-PARP1 (Cat. #a0010), anti-Bcl2 (Cat. #a19693), anti-Mcl-1 (Cat. #a0434), anti-Pim2 (Cat. #a9230), anti-Caspase8 (Cat. #a19549) and anti-FLT3 (Cat. #a12437) were purchased from ABclonal Company (Wuhan, China).
(A) Chemical structure of LT-171-861. […] Data were then fitted to obtain KD value. […] Data were first normalized by setting the highest and lowest value in each set to 100% and 0% respectively. Data were obtained in the presence of the LT-171-861 (blue circle) as positive the control and DMSO (red square) as the negative control. All experiments were performed at three independent occasions and data are given as the mean ± SD. […] Cell viability was evaluated by MTT assay respectively. The IC50 values were calculated using nonlinear regression.
(In general: Immunoblotting shows a protein as a band on a membrane.)
Target sequence in this assay (P36888 610-943 limits assumed): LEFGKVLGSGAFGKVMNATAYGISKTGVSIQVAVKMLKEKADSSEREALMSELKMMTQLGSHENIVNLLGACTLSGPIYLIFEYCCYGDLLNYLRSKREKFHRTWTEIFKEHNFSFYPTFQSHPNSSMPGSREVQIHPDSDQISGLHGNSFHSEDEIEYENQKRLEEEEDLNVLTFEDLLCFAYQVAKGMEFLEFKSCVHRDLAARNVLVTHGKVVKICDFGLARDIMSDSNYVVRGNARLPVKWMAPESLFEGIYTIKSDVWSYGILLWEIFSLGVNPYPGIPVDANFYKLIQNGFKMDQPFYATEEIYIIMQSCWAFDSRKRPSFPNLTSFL

Data set [6] relates to bone marrow mononuclear cells (BMMCs). Nature of the data set: Apoptosis assay in normal bone marrow mononuclear cells. The class given is cell-based, C57BL/6 mice. The following applies: 36 h. The protocol: Blue square and solid line represent intravenous injection administration. […] Mice were sacrificed at indicated time points and then tumor tissues were dissected and lysed. Phosphorylation levels of FLT3, STAT5 and ERK1/2 were measured by western blotting. (C) Bone marrow mononuclear cells (BMMCs) were isolated from healthy C57BL/6 mice. […] Apoptosis assays were conducted after 36-hour incubation. […] 24 h after the last administration, c-Kit^+ cells were evaluated by flow cytometry. […] Data were shown with mean±SD.
Then, we evaluated progenitor cell (c-Kit^+) lineages of bone marrow cells (Figure 4D), spleen or liver weights (Figure S2A), relative body weights (Figure S2B), and parameters of blood routine examination (Figure S2C).

Data set [7] deals with MV4-11 cells and MOLM13 cells. The data set is described as follows: Subcutaneous xenograft model. The class given is in vivo, BALB/c nude mice. The protocol:
According to previously described, [31], BALB/c nude mice were subcutaneously inoculated with MV4-11 cells (5×10^6) and MOLM13 cells (5×10^6). […] Tumor volume and body weight were measured with the caliper twice weekly. Tumor volumes were calculated based on: tumor volume=length×width^2/2.
LT-171-861 was administered every two days in xenograft mice. […] Tumor-eliminated mice were monitored for an additional 20 days after dosing was halted.
Data were shown as mean±SD. […] Data were shown as mean±SD. (C) An engrafted tumor model was used to evaluate in vivo antitumor activity. The NOD/SCID mice were intravenously inoculated with MV4-11 cells. […] Log-rank testing was used to compare survival curves among treatment groups. […] (D) Apoptotic assays in engraft model were evaluated by TUNEL assay and cell proliferative activity was measured by Ki67 assay. Images were acquired at ×40 magnification. (E) BALB/c nude mice were subcutaneously inoculated with MV4-11 cells (5×10^6) and bodyweight of each mouse was recorded every other day. (F) Representative photo of tumors from BALB/c nude mice which were inoculated with MV4-11 cells. (G) BALB/c nude mice were subcutaneously inoculated with BaF3 cells bearing FLT3-ITD-N676D (n=6) and FLT3-ITD-F691L (n=6) respectively. […] (H) BALB/c mice were intravenously inoculated with cells used in (G). […] Log-rank testing was used to compare survival curves among treatment groups. […] (I) Representative photos of spleens dissected from mice in (H) inoculated with BaF3 cells bearing FLT-3-ITD-F691L.

Bounds are passed on as bounds.

T4 sequence (P52333 whole entry): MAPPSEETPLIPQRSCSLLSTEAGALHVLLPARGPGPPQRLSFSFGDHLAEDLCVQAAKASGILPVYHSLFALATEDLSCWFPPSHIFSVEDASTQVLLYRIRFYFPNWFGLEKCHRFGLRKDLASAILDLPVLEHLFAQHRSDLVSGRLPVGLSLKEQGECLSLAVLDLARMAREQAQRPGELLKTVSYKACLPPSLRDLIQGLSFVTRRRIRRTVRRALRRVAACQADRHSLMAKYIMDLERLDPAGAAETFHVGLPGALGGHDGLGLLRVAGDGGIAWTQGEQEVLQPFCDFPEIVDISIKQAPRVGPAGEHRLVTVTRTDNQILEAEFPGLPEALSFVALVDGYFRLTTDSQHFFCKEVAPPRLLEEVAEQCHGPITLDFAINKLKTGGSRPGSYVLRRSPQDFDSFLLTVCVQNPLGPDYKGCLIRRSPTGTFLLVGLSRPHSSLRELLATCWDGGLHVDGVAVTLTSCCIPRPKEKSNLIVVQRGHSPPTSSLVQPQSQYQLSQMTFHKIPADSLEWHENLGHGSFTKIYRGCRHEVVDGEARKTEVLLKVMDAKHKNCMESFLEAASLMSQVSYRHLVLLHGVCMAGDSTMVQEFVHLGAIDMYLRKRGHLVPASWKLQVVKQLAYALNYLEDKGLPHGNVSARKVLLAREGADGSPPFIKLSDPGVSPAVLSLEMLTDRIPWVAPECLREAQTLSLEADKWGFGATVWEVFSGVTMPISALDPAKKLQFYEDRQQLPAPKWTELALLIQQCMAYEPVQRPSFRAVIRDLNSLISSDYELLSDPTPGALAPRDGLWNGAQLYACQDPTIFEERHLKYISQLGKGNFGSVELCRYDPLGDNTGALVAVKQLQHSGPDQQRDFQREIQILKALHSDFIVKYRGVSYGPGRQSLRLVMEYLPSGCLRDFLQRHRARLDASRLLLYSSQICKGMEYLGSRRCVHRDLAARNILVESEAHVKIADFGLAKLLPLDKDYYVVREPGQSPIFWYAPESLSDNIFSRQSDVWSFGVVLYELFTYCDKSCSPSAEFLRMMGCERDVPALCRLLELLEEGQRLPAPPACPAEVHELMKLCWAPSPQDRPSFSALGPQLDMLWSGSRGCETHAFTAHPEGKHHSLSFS
T1 sequence (P12931 whole entry): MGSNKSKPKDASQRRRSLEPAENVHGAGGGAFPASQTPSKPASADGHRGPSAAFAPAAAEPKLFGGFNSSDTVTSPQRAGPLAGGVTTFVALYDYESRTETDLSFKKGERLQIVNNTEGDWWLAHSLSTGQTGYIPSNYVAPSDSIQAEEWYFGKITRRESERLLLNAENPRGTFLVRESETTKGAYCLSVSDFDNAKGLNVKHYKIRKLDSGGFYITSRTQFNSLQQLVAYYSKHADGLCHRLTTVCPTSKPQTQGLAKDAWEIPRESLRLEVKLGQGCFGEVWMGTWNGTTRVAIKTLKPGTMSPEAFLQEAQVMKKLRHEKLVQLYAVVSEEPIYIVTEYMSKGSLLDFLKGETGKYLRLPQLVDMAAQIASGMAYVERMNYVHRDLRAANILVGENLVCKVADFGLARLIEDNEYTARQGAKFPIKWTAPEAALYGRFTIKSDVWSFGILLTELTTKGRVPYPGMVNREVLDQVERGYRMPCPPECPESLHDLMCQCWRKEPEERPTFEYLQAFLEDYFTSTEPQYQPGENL
T3 sequence (P23458 whole entry): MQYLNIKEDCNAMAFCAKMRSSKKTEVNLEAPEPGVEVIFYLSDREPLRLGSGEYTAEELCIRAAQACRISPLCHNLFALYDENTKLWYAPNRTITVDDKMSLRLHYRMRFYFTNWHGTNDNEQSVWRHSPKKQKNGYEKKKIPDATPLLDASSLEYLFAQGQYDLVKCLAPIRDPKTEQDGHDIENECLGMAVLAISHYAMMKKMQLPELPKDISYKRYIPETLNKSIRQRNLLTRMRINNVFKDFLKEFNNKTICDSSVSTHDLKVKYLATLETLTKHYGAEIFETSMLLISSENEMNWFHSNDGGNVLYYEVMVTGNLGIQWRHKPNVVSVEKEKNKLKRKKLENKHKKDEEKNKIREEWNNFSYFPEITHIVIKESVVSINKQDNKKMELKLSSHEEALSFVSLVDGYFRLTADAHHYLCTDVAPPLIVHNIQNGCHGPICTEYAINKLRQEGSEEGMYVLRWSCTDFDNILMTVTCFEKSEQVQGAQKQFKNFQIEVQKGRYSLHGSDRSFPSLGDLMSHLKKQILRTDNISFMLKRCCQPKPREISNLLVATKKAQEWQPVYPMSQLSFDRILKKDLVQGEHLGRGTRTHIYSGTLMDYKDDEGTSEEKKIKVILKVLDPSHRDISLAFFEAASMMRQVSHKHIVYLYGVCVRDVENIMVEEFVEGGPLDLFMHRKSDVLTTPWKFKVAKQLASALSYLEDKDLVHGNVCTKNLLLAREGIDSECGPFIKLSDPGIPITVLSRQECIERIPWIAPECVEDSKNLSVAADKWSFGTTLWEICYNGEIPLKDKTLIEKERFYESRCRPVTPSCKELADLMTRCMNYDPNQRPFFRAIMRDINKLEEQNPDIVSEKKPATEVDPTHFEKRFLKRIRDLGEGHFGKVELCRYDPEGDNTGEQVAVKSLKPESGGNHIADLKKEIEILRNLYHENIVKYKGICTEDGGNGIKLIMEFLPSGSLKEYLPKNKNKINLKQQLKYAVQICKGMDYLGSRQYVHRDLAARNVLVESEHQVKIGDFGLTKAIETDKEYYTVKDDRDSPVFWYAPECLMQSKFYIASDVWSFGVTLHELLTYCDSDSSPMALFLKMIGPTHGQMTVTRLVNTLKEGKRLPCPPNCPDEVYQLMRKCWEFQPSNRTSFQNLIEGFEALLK

As to `CN1CCN(Cc2ccc(NC(=O)c3n[nH]cc3Nc3ncnc4[nH]ccc34)cc2)CC1` [LT-171-861], the IC50 in data set [1] was 72 nM; in data set [2], under 1 nM; in data set [2] (10 μM ATP, 10-dose IC50 mode) it was 0.234 nM; in data set [3] it was 55 nM; in data set [4], 32.6 nM; in data set [5], at most 40 nM. In data set [6], the “toxicity in normal BMMCs” value was “hypotoxicity”. Further, the “tumor growth in xenograft models” value in data set [7] (10 mg/kg intravenous every two days, 20 or 24-day treatment) was “complete tumor regression was achieved”. Further, in data set [7] (MV4-11 cell line xenograft model), the bodyweight during dosing entry is “no significant weight suppression”. The “H&E staining in liver, heart, spleen, lung and kidney” value in data set [7] (MV4-11 cell line xenograft model, end of experiment) was “no significant damage”. In addition, the “tumor regrowth after dosing was halted” value in data set [7] (monitored for an additional 20 days) is “No tumor regrowth was observed”.

One may read the IC50 as the concentration that gives 50% inhibition.

These data come from PMC7681098 (Theranostics, 2021).
